The conditions of data set [1]: cited from earlier work.
Data set [2] has as its system CYP3A4. The experiment in a line: CYP inhibition (direct and metabolism-dependent) in human hepatic microsomes. The class given is in vitro ADME. The following applies: for MDI IC50 Fold Change / IC50: CYP3A4 (Testosterone); for MDI IC50 Fold Change: metabolism-dependent inhibition; for IC50: human, read-out: as an Inhibitor IC50. How it is done: (§1) The direct inhibitory potential of EBO on cytochrome P450 activities O-deethylase (CYP1A2), bupropion hydroxylase (CYP2B6), amodiaquine N-deethylase (CYP2C8), diclofenac 4′-hydroxylase (CYP2C9), S-mephenytoin 4′-hydroxylase (CYP2C19), bufuralol 1′-hydroxylase (CYP2D6), chlorzoxazone 6-hydroxylase (CYP2E1), testosterone 6β-hydroxylase (CYP3A), and midazolam 1′-hydroxylase (CYP3A) was assessed in vitro using human hepatic microsomes according to Covance Laboratory (Madison, WI, USA) SOP. A single substrate concentration was used, approximating the concentration of substrate that gives half the maximum reaction velocity (Km) for human hepatic microsomes for each cytochrome P450 activity. […] All sample and control incubations were performed in triplicate and were analyzed by LC-MS/MS. Incubation mixtures contained microsomal protein and substrate in a 0.1 M potassium phosphate buffer (pH 7.4) containing 1 mM EDTA (assay buffer). […] Incubations were terminated by the addition of 100 µL of an internal standard solution followed by vortex mixing. Protein was removed by centrifugation at 1500× g for 5 min at 4 °C, and supernatants were transferred to a separate plate and stored at 4 °C prior to LC-MS/MS analysis. The analyte for each activity assay was quantitated by comparison to a linear curve of an authentic standard prepared using human microsomal protein. […] Incubations were performed at substrate concentrations approximating the average Km values. […] For determination of control activities, NADPH was added after the addition of each substrate. Samples were then processed as previously described. […] Two sets of duplicate incubations were prepared (cofactor preincubation [50 µL] and control preincubation [50 µL]) with each concentration of M3. All incubations contained a final microsomal protein concentration of 0.1 mg/mL. In this study, M3 and microsomes were preincubated with cofactor for 20 min prior to initiation of reaction by addition of probe substrate. The corresponding control incubations were designed to provide a preincubation without cofactor while incorporating the 20 min preincubation of M3 with microsomes to ensure consistent equilibration of M3 in both control and cofactor preincubations. The control preincubations were therefore performed for 20 min with M3, microsomes, and probe substrate, and the reaction was initiated by the addition of a cofactor solution. […] Incubations without cofactor (at the highest concentration of M3) were performed to determine any cofactor-independent substrate metabolism formation. Probe substrate concentrations were determined by LC/MS/MS methods.

The test system of data set [3] is CYP3A4/5. The description is as above. Type of data set: in vitro ADME. The conditions noted are these: for MDI IC50 Fold Change: metabolism-dependent inhibition; for IC50: read-out: as an Inhibitor IC50. The method, then: as §1
Data set [4] concerns the target T1, CYP2D6 (Homo sapiens, UniProt P10635).
T1 construct: Characterized, pooled, human hepatic microsomes from 15 individuals; tissue CellzDirect (Durham, NC, USA) or XenoTech LLC (Lenexa, KS, USA); host or cells: pooled human liver microsomes (15 donors)
The data set is described as above. The class given is in vitro ADME. The following applies: for MDI IC50 Fold Change: metabolism-dependent inhibition; for IC50: read-out: as an Inhibitor IC50. The method, then:
as §1

For data set [5], the target named is T2, CYP2C8 (Homo sapiens, UniProt P10632).
T2 construct: tissue CellzDirect; XenoTech LLC; host or cells: pooled human liver microsomes
T2 sequence (P10632 1-490): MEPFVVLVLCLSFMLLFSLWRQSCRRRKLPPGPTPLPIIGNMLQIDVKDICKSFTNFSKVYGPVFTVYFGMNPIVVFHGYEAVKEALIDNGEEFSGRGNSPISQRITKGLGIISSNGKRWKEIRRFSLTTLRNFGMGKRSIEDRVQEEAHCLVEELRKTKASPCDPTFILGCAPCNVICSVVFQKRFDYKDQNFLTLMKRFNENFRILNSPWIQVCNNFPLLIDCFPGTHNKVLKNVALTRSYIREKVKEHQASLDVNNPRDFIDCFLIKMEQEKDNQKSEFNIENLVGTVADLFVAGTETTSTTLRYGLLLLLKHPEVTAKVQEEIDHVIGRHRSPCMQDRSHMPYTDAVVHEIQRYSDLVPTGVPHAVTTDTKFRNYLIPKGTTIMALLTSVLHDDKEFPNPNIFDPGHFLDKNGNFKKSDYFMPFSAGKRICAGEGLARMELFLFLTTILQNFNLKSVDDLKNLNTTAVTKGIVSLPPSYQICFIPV
Described as above. The class given is in vitro ADME. The following applies: for MDI IC50 Fold Change: metabolism-dependent inhibition; for IC50: read-out: as an Inhibitor IC50. The method, then:
as §1

The test system of data set [6] is CYP1A2. The data set is described as above. Type of data set: in vitro ADME. The following applies: for MDI IC50 Fold Change: metabolism-dependent inhibition; for IC50: pH 7.4, EBO 0.03–100 μM, M3 1–1000 µM, read-out: as an Inhibitor IC50. The method, then: as §1
Data set [7] has as its target T3, CYP2C9 (Homo sapiens, UniProt P11712).
T3 construct: tissue CellzDirect; XenoTech LLC; host or cells: pooled human liver microsomes
The description is as above. The conditions noted are these: for MDI IC50 Fold Change: metabolism-dependent inhibition; for IC50: read-out: as an Inhibitor IC50. Type of data set: in vitro ADME. How it is done: as §1

For data set [8], the target named is T4, BCRP (Homo sapiens, UniProt Q9UNQ0).
T4 construct: host or cells: MDCK (BCRP-MDCK)
T4 sequence (Q9UNQ0 1-655): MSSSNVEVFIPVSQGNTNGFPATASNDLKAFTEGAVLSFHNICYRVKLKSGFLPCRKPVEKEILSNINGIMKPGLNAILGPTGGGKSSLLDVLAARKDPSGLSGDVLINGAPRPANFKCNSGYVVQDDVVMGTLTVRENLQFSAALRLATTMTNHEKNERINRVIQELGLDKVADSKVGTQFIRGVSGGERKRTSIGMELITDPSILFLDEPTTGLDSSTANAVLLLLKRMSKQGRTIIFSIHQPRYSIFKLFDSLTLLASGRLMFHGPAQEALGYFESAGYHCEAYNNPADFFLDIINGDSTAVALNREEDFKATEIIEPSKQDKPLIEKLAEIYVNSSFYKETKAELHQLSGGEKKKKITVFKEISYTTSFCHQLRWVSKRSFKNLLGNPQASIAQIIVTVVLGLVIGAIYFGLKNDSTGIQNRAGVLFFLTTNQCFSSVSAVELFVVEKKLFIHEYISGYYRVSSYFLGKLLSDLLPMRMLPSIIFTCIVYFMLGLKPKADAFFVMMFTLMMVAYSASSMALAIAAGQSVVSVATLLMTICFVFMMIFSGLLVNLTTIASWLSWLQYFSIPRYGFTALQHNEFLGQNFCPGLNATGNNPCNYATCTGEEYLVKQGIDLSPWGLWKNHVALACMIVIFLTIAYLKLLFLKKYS
The experiment in a line: Substrate potential for BCRP, bidirectional permeability in BCRP-MDCK. The class given is in vitro ADME. The conditions noted are these: for Concentration in the receiver compartment: 5 µM, BCRP-MDCK and MDCK cells, A to B and B to A, Papp and efflux ratio could not be calculated; for as a Substrate: BCRP.

Data set [9] concerns HEK 293 or MDCK cell lines. The experiment in a line: Cytotoxicity in transporter inhibition studies. The class given is cell-based. The following applies: at the concentrations tested in transporter inhibition studies.
Setting [10] is: EBO 500 mg PO q24h, healthy subjects, Study EBO-101, printed with "(unbound fraction)", read-out: Steady-state systemic total Cmax.
The mark [11] stands for this setting: human study of radiolabeled EBO.

Where two headings read alike, the source gives them in different places.

Data on two molecules can be found in article PMC10818931, “In Vitro Evaluation of Drug–Drug Interaction Potential of Epetraborole, a Novel Bacterial Leucyl-tRNA Synthetase Inhibitor” (Pharmaceuticals, 2024).

T1 sequence (P10635 whole entry): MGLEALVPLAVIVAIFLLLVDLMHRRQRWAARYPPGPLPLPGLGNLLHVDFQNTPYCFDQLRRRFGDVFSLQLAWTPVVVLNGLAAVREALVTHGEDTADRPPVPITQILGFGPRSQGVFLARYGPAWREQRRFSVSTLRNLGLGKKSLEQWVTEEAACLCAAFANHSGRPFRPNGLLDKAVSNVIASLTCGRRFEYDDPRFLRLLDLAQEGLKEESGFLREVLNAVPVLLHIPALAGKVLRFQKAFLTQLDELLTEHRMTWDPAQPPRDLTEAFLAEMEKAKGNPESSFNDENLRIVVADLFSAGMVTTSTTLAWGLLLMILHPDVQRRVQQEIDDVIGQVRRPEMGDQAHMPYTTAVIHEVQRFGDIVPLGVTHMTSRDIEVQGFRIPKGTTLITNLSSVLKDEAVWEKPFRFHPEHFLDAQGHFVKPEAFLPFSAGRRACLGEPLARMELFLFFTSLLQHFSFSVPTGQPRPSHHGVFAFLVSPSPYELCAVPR
T3 sequence (P11712 whole entry): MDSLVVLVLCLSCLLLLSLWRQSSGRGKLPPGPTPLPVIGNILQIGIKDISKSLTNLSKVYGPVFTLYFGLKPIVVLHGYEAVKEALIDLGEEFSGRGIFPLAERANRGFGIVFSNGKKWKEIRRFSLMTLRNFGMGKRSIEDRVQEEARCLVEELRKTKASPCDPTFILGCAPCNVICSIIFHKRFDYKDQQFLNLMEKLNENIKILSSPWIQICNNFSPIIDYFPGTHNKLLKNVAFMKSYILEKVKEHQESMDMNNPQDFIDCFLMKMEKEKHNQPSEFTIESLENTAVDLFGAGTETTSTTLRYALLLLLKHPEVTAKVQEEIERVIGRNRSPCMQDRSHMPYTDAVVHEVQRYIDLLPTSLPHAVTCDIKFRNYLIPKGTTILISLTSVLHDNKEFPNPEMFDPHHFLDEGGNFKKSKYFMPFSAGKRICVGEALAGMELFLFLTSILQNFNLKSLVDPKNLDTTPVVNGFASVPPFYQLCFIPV

What is called Cmax is the peak of the concentration-time curve. For orientation: IC50 means the concentration that gives 50% inhibition. As usually defined, the inhibition is the drop in the measured response relative to a control, in per cent. Consider `NC[C@H]1OB(O)c2c(OCCCO)cccc21` [EBO, Epetraborole], for which the Cmax was 2850 ng/mL in [1] (500 mg/day PO human clinical dose) and 12 µM in [1] (setting [10]). Further, the “MDI IC50 Fold Change” value in data set [2], in data set [3] (CYP3A4/5 (Midazolam)), in data set [4], in data set [5], in [6] (CYP1A2) and in data set [7] was “No” in each case. Further, the 50% inhibitory concentration (IC50) in [2] (human hepatic (liver) microsomes, pH 7.4, probe testosterone (6β-hydroxylation)) is over 0.1 mM; in [3] (human, human hepatic (liver) microsomes, pH 7.4, probe midazolam (1′-hydroxylation), CYP3A4/5 (Midazolam)) it was over 0.1 mM; in data set [4], over 0.1 mM; in [5], over 0.1 mM; in data set [6] (human, human liver microsomes, CYP1A2), over 0.1 mM; in data set [7], over 0.1 mM. For the same molecule, the inhibition at 100 µM in [6] (human, human hepatic microsomes, pH 7.4, highest concentration tested (100 µM), read-out: Decrease of CYP1A2 activity (inhibition)) was about 30%. The figures for the “Percentage of CYP1A2 activity remaining” value in data set [6] (preincubation with EBO in the absence of NADPH) and in data set [6] (preincubation with EBO in the presence of NADPH) were 72.4% and 81.7%, respectively. For the same molecule, the “Concentration in the receiver compartment” value in data set [8] is given as “below the lower limit of quantification”. The “as a Substrate” value in data set [8] was “No”. Moreover, the Cytotoxicity result in data set [9] is reported as “Neither EBO nor M3 induced any cytotoxicity”.
Consider `NC[C@H]1OB(O)c2c(OCCC(=O)O)cccc21` [M3], for which, in [1] (setting [10]), the Cmax was 20 µM. Also, the “Excretion (in words)” value in [1] (setting [11]) is on record as “excreted predominantly in the urine”. The “Further metabolism (in words)” value in [1] (setting [11]) is “not subject to further metabolism”. Further, the “Direct or time-dependent inhibitory activity (in words)” value in [2] (CYP3A4), in data set [4], in data set [5], in data set [6] (CYP1A2) and in data set [7] was “No direct or time-dependent inhibitory activity” throughout. In addition, the “MDI IC50 Fold Change” value in [2], in data set [3] (CYP3A4/5 (Atorvastatin)), in [3] (CYP3A4/5 (Midazolam)), in data set [4], in data set [5] and in [6] (CYP1A2) was “No” throughout. In data set [7], the “MDI IC50 Fold Change” value is on record as “No”. Further, the 50% inhibitory concentration (IC50) in data set [2] (microsomes, pH 7.4) is over 1 mM; in [3] (CYP3A4/5 (Atorvastatin)) it was over 1 mM; in [3] (human, microsomes, pH 7.4, CYP3A4/5 (Midazolam)), over 1 mM; in data set [4], over 1 mM; in data set [5] it was over 1 mM; in [6] (human, microsomes, CYP1A2), over 1 mM. Besides, the IC50 in data set [7] was over 1 mM. Besides, in data set [8], the “Concentration in the receiver compartment” value was “below the lower limit of quantification”. In addition, the “as a Substrate” value in data set [8] is on record as “No”. For the same molecule, the Cytotoxicity result in [9] was “Neither EBO nor M3 induced any cytotoxicity”.
